In patent US8785457B2 (Cellzome Limited, priority 2009, dated 2014):
Read-outs that look alike come from different tables or passages of the source.

How the values were obtained:
[1] = target: T1, mTOR (Homo sapiens, UniProt P42345); assay: mTOR kinobeads assay (competitive binding in Jurkat cell lysate, immunodetection)
T1 construct: endogenous in cells; host or cells: Jurkat, clone E6-1 (ATCC TIB-152) cell lysate
Outline: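 IC50 derived from dose-response curves of mTOR captured on immobilized phenylmorpholin-chromen beads, detected by antibody dot blot with infrared fluorescence.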

[2] = target: T2, PI3K delta (PI3 Kd) (Homo sapiens, UniProt O00329); assay: kinobeads assay, PI3K delta; type: binding
T2 construct: endogenous in cells; host or cells: Jurkat, clone E6-1 (ATCC TIB-152) cell lysate
Outline: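 IC50 values came from dose-response curves after test compound (1:3 series) competed with an immobilized phenylmorpholin-chromen affinity matrix for kinases in Jurkat lysate at 5 mg/mL protein. Eluted captured DNA-PK and PI3Kδ were measured by specific-antibody dot blot and infrared imaging. Buffer was Tris pH 7.4, NP40, MgCl2, NaCl, vanadate, DTT, NaF.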

[3] = kinobeads assay, Table 4, read-out: Inhibition values (IC50) mTor
[4] = kinobeads assay, Table 6, read-out: Inhibition values (IC50) mTOR
[5] = kinobeads assay, Table 4, read-out: Inhibition values (IC50) PI3Kd
[6] = kinobeads assay, Table 6, read-out: Inhibition values (IC50) PI3Kd
[7] = Further Kinobeads Data, read-out: mTor
[8] = Further Kinobeads Data, read-out: PI3Kd

T2 sequence (O00329 whole entry): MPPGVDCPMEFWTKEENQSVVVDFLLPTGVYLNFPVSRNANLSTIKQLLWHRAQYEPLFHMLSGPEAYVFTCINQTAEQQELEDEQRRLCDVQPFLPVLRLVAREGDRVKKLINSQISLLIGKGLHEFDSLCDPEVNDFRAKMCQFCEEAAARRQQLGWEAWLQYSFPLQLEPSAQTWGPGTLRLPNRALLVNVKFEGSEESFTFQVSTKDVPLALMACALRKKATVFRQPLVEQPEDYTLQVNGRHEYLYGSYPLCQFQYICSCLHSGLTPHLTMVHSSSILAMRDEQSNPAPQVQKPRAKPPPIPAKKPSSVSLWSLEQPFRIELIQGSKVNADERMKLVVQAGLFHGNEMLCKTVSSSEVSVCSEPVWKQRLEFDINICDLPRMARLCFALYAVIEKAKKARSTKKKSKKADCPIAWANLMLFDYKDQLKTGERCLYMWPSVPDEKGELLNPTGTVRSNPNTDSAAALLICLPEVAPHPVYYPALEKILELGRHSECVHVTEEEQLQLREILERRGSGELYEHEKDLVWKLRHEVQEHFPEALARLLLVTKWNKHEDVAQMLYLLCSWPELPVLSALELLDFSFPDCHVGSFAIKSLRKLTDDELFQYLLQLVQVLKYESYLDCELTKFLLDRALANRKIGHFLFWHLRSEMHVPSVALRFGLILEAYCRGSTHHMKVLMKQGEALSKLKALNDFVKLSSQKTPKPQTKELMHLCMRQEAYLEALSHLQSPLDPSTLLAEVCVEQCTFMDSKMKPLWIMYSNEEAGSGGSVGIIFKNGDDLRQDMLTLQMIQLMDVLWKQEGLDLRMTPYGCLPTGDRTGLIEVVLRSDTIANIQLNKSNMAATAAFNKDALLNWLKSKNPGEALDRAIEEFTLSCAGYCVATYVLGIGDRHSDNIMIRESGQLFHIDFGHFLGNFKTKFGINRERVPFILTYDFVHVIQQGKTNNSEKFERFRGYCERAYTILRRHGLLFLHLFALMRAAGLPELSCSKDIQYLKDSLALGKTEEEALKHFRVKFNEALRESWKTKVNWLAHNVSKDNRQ
T2 sequence (P27986 whole entry partner): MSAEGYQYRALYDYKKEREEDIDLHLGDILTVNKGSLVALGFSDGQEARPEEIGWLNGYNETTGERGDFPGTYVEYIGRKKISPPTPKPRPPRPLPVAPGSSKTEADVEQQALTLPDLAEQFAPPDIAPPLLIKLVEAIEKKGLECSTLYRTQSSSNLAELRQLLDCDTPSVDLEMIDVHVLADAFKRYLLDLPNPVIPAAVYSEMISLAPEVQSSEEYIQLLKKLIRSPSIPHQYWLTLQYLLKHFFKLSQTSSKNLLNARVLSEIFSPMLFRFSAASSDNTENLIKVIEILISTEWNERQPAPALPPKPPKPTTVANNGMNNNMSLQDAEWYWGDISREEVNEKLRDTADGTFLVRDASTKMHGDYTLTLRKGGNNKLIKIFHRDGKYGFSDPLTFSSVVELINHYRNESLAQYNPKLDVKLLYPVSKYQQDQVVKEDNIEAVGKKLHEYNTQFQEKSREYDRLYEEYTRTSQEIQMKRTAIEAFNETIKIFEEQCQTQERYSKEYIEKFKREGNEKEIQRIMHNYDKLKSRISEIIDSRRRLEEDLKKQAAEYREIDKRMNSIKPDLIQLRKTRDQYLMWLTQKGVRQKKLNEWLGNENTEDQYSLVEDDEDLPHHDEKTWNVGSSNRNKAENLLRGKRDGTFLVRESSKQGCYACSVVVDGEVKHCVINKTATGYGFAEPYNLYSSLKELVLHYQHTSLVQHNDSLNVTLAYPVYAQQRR

| SMILES | IC50 [1, 3] | IC50 [1, 4] | IC50 [2, 5] | IC50 [2, 6] | IC50 [1, 7] | IC50 [2, 8] |
| --- | --- | --- | --- | --- | --- | --- |
| CCOC(=O)N1Cc2nc(-c3ccc(NC(=O)NC4CC4)cc3)nc(N3CCOC[C@@H]3C)c2C1 [Example 34, (S)-ethyl 2-(4-(3-cyclopropylureido)phenyl)-4-(3-methylmorpholino)-5H-pyrrolo[3,4-d]pyrimidine-6(7H)-carboxylate] | < 0.1 µM | < 0.1 µM | > 10 µM | > 10 µM | – | – |
| C[C@H]1COCCN1c1nc(-c2ccc(NC(=O)NC3CC3)cc2F)nc2c1CCNC2 [Example 163, (S)-1-cyclopropyl-3-(3-fluoro-4-(4-(3-methylmorpholino)-5,6,7,8-tetrahydropyrido[3,4-d]pyrimidin-2-yl)phenyl)urea] | – | – | – | – | < 0.1 µM | > 10 µM |
| CC(C)N1Cc2nc(-c3ccc(NC(=O)NCCF)cc3F)nc(N3CCOCC3)c2C1 [Example 185, 1-(3-fluoro-4-(6-isopropyl-4-morpholino-6,7-dihyro-5H-pyrrolo[3,4-d]pyrimidin-2-yl)phenyl)-3-(2-fluoroethyl)urea] | – | – | – | – | < 0.1 µM | 1 to 10 µM |
| CC(=O)N1Cc2nc(-c3ccc(NC(=O)NC4CC4)cc3)nc(N3CCOC[C@@H]3C)c2C1 [Example 20, (S)-1-(4-(6-acetyl-4-(3-methylmorpholino)-6,7-dihydro-5H-pyrrolo[3,4-d]pyrimidin-2-yl)phenyl)-3-cyclopropylurea] | < 0.1 µM | < 0.1 µM | > 10 µM | > 10 µM | – | – |
| CCNC(=O)Nc1ccc(-c2nc3c(c(N4CCOC[C@@H]4C)n2)CN(Cc2ccc(F)cc2)C3)cc1 [Example 29, (S)-1-ethyl-3-(4-(6-(4-fluorobenzyl)-4-(3-methylmorpholino)-6,7-dihydro-5H-pyrrolo[3,4-d]pyrimidin-2-yl)phenyl)urea] | 0.1 to 1 µM | 0.1 to 1 µM | > 10 µM | > 10 µM | – | – |
| CCNC(=O)Nc1ccc(-c2nc3c(c(N4CCOC[C@@H]4C)n2)CCN(CC2CC2)C3)cc1 [Example 37, (S)-1-(4-(7-(cyclopropylmethyl)-4-(3-methylmorpholino)-5,6,7,8-tetrahydropyrido[3,4-d]pyrimidin-2-yl)phenyl)-3-ethylurea] | < 0.1 µM | < 0.1 µM | > 10 µM | > 10 µM | – | – |
| CCNC(=O)Nc1ccc(-c2nc3c(c(N4CCOC[C@@H]4C)n2)CN(CC2CC2)C3)cc1 [Example 28, (S)-1-(4-(6-(cyclopropylmethyl)-4-(3-methylmorpholino)-6,7-dihydro-5H-pyrrolo[3,4-d]pyrimidin-2-yl)phenyl)-3-ethylurea] | < 0.1 µM | < 0.1 µM | > 10 µM | > 10 µM | – | – |
| CCNC(=O)Nc1ccc(-c2nc3c(c(N4CCOC[C@@H]4C)n2)CCN(C(=O)C(C)C)C3)cc1 [Example 57, (S)-1-ethyl-3-(4-(7-isobutyryl-4-(3-methylmorpholino)-5,6,7,8-tetrahydropyrido[3,4-d]pyrimidin-2-yl)phenyl)urea] | < 0.1 µM | < 0.1 µM | > 10 µM | > 10 µM | – | – |
| CCNC(=O)Nc1ccc(-c2nc3c(c(N4CCOCC4)n2)CN(C(=O)OCC)C3)c(F)c1 [Example 151, Ethyl 2-(4-(3-ethylureido)-2-fluorophenyl)-4-morpholino-5H-pyrrolo[3,4-d]pyrimidine-6(7H)-carboxylate] | – | – | – | – | 0.1 to 1 µM | > 10 µM |
| CCNC(=O)Nc1ccc(-c2nc3c(c(N4CCOC[C@@H]4C)n2)CN(C)C3)c(F)c1 [Example 160, (S)-1-ethyl-3-(3-fluoro-4-(6-methyl-4-(3-methylmorpholino)-6,7-dihydro-5H-pyrrolo[3,4-d]pyrimidin-2-yl)phenyl)urea] | – | – | – | – | < 0.1 µM | > 10 µM |
| COC(=O)N1Cc2nc(-c3ccc(NC(=O)NC4CC4)cc3F)nc(N3CCOCC3)c2C1 [Example 173, Methyl 2-(4-(3-cyclopropylureido)-2-fluorophenyl)-4-morpholino-5H-pyrrolo[3,4-d]pyrimidine-6(7H)-carboxylate] | – | – | – | – | < 0.1 µM | > 10 µM |
| CCNC(=O)Nc1ccc(-c2nc3c(c(N4CCOC[C@@H]4C)n2)CN(C(=O)C(C)C)C3)cc1 [Example 21, (S)-1-ethyl-3-(4-(6-isobutyryl-4-(3-methylmorpholino)-6,7-dihydro-5H-pyrrolo[3,4-d]pyrimidin-2-yl)phenyl)urea] | < 0.1 µM | < 0.1 µM | 1 to 10 µM | 1 to 10 µM | – | – |
| CCNC(=O)Nc1ccc(-c2nc3c(c(N4CCOC[C@@H]4C)n2)CN(C(=O)OC)C3)c(F)c1 [Example 152, (S)-methyl 2-(4-(3-ethylureido)-2-fluorophenyl)-4-(3-methylmorpholino)-5H-pyrrolo[3,4-d]pyrimidine-6-(7H)-carboxylate] | – | – | – | – | 0.1 to 1 µM | 1 to 10 µM |
| CC(C)NC(=O)N1CCc2c(nc(-c3ccc(NC(=O)NC4CC4)cc3F)nc2N2CCOC[C@@H]2C)C1 [Example 189, (S)-2-(4-(3-cyclopropylureido)-2-fluorophenyl)-N-isopropyl-4-(3-methylmorpholino)-5,6-dihydropyrido[3,4-d]pyrimidine-7(8H)-carboxamide] | – | – | – | – | < 0.1 µM | > 10 µM |
| C[C@H]1COCCN1c1nc(-c2ccc(NC(=O)NC3CC3)cc2)nc2c1CN(CC1CC1)C2 [Example 30] | < 0.1 µM | < 0.1 µM | > 10 µM | > 10 µM | – | – |
| CCNC(=O)Nc1ccc(-c2nc3c(c(N4CCOC[C@@H]4C)n2)CN(S(C)(=O)=O)C3)cc1 [Example 32, (S)-1-ethyl-3-(4-(4-(3-methylmorpholino)-6-(methylsulfonyl)-6,7-dihydro-5H-pyrrolo[3,4-d]pyrimidin-2-yl)phenyl)urea] | < 0.1 µM | < 0.1 µM | > 10 µM | > 10 µM | – | – |
| C[C@@H]1COCCN1c1nc(-c2ccc(NC(=O)NC3CC3)cc2F)nc2c1CN(S(C)(=O)=O)C2 [Example 191, (R)-1-cyclopropyl-3-(3-fluoro-4-(4-(3-methylmorpholino)-6-(methylsulfonyl)-6,7-dihydro-5H-pyrrolo[3,4-d]pyrimidin-2-yl)phenyl)urea] | – | – | – | – | 0.1 to 1 µM | > 10 µM |
| C[C@H]1COCCN1c1nc(-c2ccc(NC(=O)NC3CC3)cc2)nc2c1CN(C)C2 [Example 38, (S)-1-cyclopropyl-3-(4-(6-methyl-4-(3-methylmorpholino)-6,7-dihydro-5H-pyrrolo[3,4-d]pyrimidin-2-yl)phenyl)urea] | < 0.1 µM | < 0.1 µM | > 10 µM | > 10 µM | – | – |
| CCNC(=O)Nc1ccc(-c2nc3c(c(N4CCOC[C@@H]4C)n2)CNCC3)cc1 [Example 12, (S)-1-ethyl-3-(4-(4-(3-methylmorpholino)-5,6,7,8-tetrahydropyrido[4,3-d]pyrimidin-2-yl)phenyl)urea] | 0.1 to 1 µM | 0.1 to 1 µM | > 10 µM | > 10 µM | – | – |
| CCOC(=O)N1Cc2nc(-c3ccc(NC(=O)NCCF)cc3F)nc(N3CCOC[C@@H]3C)c2C1 [Example 168, (S)-ethyl 2-(2-fluoro-4-(3-(2-fluoroethyl)ureido)phenyl)-4-(3-methylmorpholino)-5H-pyrrolo[3,4-d]pyrimidine-6(7H)-carboxylate] | – | – | – | – | < 0.1 µM | 1 to 10 µM |
| COC(=O)N1Cc2nc(-c3ccc(NC(=O)NCCO)cc3F)nc(N3CCOC[C@@H]3C)c2C1 [Example 181, (S)-methyl 2-(2-fluoro-4-(3-(2-hydroxyethyl)ureido)phenyl)-4-(3-methylmorpholino)-5H-pyrrolo[3,4-d]pyrimidine-6(7H)-carboxylate] | – | – | – | – | < 0.1 µM | > 10 µM |
| CN1Cc2nc(-c3ccc(NC(=O)NC4CC4)cc3F)nc(N3CCOCC3)c2C1 [Example 159, 1-(Cyclopropyl)-3-(3-fluoro-4-(6-methyl-4-morpholino-6,7-dihydro-5H-pyrrolo[3,4-d]pyrimidin-2-yl)phenyl)urea] | – | – | – | – | 0.1 to 1 µM | > 10 µM |
| CC(=O)N1Cc2nc(-c3ccc(NC(=O)NC4CC4)cc3F)nc(N3CCOC[C@@H]3C)c2C1 [Example 155, (S)-1-(4-(6-acetyl-4-(3-methylmorpholino)-6,7-dihydro-5H-pyrrolo[3,4-d]pyrimidin-2-yl)-3-fluorophenyl)-3-cyclopropylurea] | – | – | – | – | < 0.1 µM | > 10 µM |
| CCNC(=O)Nc1ccc(-c2nc3c(c(N4CCOC[C@@H]4C)n2)CN(C(C)=O)C3)cc1 [Example 18, (S)-1-(4-(6-acetyl-4-(3-methylmorpholino)-6,7-dihydro-5H-pyrrolo[3,4-d]pyrimidin-2-yl)phenyl)-3-ethylurea] | < 0.1 µM | < 0.1 µM | 1 to 10 µM | 1 to 10 µM | – | – |
| CCOC(=O)N1Cc2nc(-c3ccc(NC(=O)NCCF)cc3F)nc(N3CCOCC3)c2C1 [Example 170, ethyl 2-(2-fluoro-4-(3-(2-fluoroethyl)ureido)phenyl)-4-morpholino-5H-pyrrolo[3,4-d]pyrimidine-6(7H)-carboxylate] | – | – | – | – | < 0.1 µM | 1 to 10 µM |
| CCNC(=O)Nc1ccc(-c2nc3c(c(N4CCOC[C@@H]4C)n2)CCN(C)C3)cc1 [Example 35, (S)-1-ethyl-3-(4-(7-methyl-4-(3-methylmorpholino)-5,6,7,8-tetrahydropyrido[3,4-d]pyrimidin-2-yl)phenyl)urea] | < 0.1 µM | < 0.1 µM | > 10 µM | > 10 µM | – | – |
| C[C@H]1COCCN1c1nc(-c2ccc(NC(=O)NC3CC3)cc2)nc2c1CNCC2 [Example 11, (S)-1-cyclopropyl-3-(4-(4-(3-methylmorpholino)-5,6,7,8-tetrahydropyrido[4,3-d]pyrimidin-2-yl)phenyl)urea] | 0.1 to 1 µM | 0.1 to 1 µM | > 10 µM | > 10 µM | – | – |
